# Measurements published in patent US10174045B2, “Benzopyrylium compounds” (Pierce Biotechnology, Inc., priority 2012, dated 2019).
# Marks after values point to notes of the source that are not given here.
# Tests used:
# [1] = Excitation/emission properties of dye NHS esters; assay type: physicochemical
# From the text: The following properties of V03-07005, V08-16072, V13-06190, and V17-03019 were compared with commercially available dyes. DyLight 680 NHS is a non-pegylated benzopyrylium dye and the ‘V’ dyes are pegylated dyes described above.
# [2] = test system: lamin B1 in U2OS cells; test: Immunofluorescence cell based assay, detection of lamin B1 with dye-GAR; conditions: for quenching with molar excess: lamin B1 experiment
# Procedure: (§1) In the indicated experiments, the inventive compounds and commercial dye were evaluated for immunofluorescence in a cell based assay using the following protocol. Frozen U20S cell plates stored at −80° C. were thawed for 30 minutes at 50° C. Storage buffer (PBS) was removed and the cells were permeabilized for 15 minutes with 0.1% Triton-X100 in 1×PBS buffer (100 μl/well). The cell plate was blocked for 60 minutes in 2% BSA/PBS-0.1% Triton-X100. Primary antibody, either rabbit anti-lamin B1 or rabbit anti-HDAC2 (10 μg/ml), diluted in 2% BSA/PBS-0.1% Triton-X100 was added to the plate and incubated for one hour at room temperature. Control wells contained only 2% BSA/PBS-0.1% Triton-X100 blocker. After incubation, antibody solution was removed from the plate and the plate was washed three times with 100 μl/well PBS-0.5% Tween-20 and one time with 100 μl/well PBS. GAR secondary antibodies labeled with various molar excess of the inventive or commercial compound were diluted to 4 μg/ml in PBS and incubated for one hour at room temperature. Plates were washed three times with 100 μl/well PBST and once with 100 μl/well PBS, and Hoechst (diluted to 0.1 μg/ml in PBS) was added to each well (100 μl/well). The plates were scanned on ArrayScan Plate Reader.
# Quantitative analysis of the data of FIGS. 11-13, expressed as Mean Total Intensity, which is the average total intensity of all pixels within a defined area or defined primary object such as a nucleus, is shown below; “Neg” indicates negative control.
# [3] = test system: U2OS cells; test: Immunofluorescence cell based assays, overall summary; conditions: summary of all immunofluorescence experiments
# Procedure: as §1
# In the indicated experiments, the inventive compounds and commercial dye were evaluated for immunofluorescence in a cell based assay using the following protocol. Frozen U20S cell plates which were stored at −80° C. were thawed for 30 minutes at 50° C. Storage buffer (PBS) was removed and cells were permeabilized for 15 minutes with 0.1% Triton-X100 in 1×PBS buffer (100 μl/well). The cell plate was blocked for 60 minutes in 2% BSA/PBS-0.1% Triton-X100. Primary antibody, either mouse anti-ezrin (1.3 μg/ml) or mouse anti-NCoR2 (20 μg/ml), diluted in 2% BSA/PBS-0.1% Triton-X100 was added to the plate and incubated for one hour at room temperature. Control wells contained only 2% BSA/PBS-0.1% Triton-X100 blocker. […] The plates were scanned on ArrayScan Plate Reader.
# [4] = test system: HDAC2 in U2OS cells; test: Immunofluorescence cell based assay, nuclear detection of HDAC2 with dye-GAR; conditions: for quenching with molar excess: HDAC2 experiment
# Procedure: as §1
# Quantitative analysis of the data of FIGS. 14-16, expressed as Mean Total Intensity, which is the average total intensity of all pixels within a defined area or defined primary object such as a nucleus, is shown below; “Neg” indicates negative control.
# [5] = test system: NCoR2 in U2OS cells; test: Immunofluorescence cell based assay, detection of NCoR2 with dye-GAM; conditions: for quenching with molar excess: NCoR2 experiment
# Procedure: (§2) In the indicated experiments, the inventive compounds and commercial dye were evaluated for immunofluorescence in a cell based assay using the following protocol. Frozen U20S cell plates which were stored at −80° C. were thawed for 30 minutes at 50° C. Storage buffer (PBS) was removed and cells were permeabilized for 15 minutes with 0.1% Triton-X100 in 1×PBS buffer (100 μl/well). The cell plate was blocked for 60 minutes in 2% BSA/PBS-0.1% Triton-X100. Primary antibody, either mouse anti-ezrin (1.3 μg/ml) or mouse anti-NCoR2 (20 μg/ml), diluted in 2% BSA/PBS-0.1% Triton-X100 was added to the plate and incubated for one hour at room temperature. Control wells contained only 2% BSA/PBS-0.1% Triton-X100 blocker. After incubation, the antibody solution was removed from the plate and the plate was washed three times with 100 μl/well of PBS-0.5% Tween-20 and one time with 100 μl/well PBS. GAM secondary antibodies labeled with various molar excess of the inventive or commercial compound were diluted to 4 μg/ml in PBS and incubated for one hour at room temperature. The plates were washed three times with 100 μl/well of PBST and once with 100 μl/well PBS, and Hoechst (diluted to 0.1 μg/ml in PBS) was added to each well (100 μl/well). The plates were scanned on ArrayScan Plate Reader.
# NCoR2 was detected in U2OS cells with V03-07005-GAM, V08-16072-GAM, V13-06190-GAM, V17-03019-GAM, DyLight 680-GAM, and Alexa Fluor 680-GAM at a 2.5×, 5×, 10×, and 15× molar excesses. Quantitative analysis of the data, expressed as Mean Total Intensity, which is the average total intensity of all pixels within a defined area or defined primary object such as a nucleus, is shown below, where “Neg” indicates the negative control condition.
# [6] = test system: ezrin in U2OS cells; test: Immunofluorescence cell based assay, detection of ezrin with dye-GAM; conditions: 2.5×-15× molar excess
# Procedure: as §2, with “The plates were washed three times with 100 μl/well of PBST and once with 100 μl/well PBS, and Hoechst (diluted to 0.1 μg/ml in PBS) was added to each well (100 μl/well).” left out
# Quantitative analysis of the data of FIGS. 17-19, expressed as Mean Total Intensity, which is the average total intensity of all pixels within a defined area or defined primary object such as a nucleus, is shown below; “Neg” indicates negative control.
# [7] = test system: mouse IgG immunoglobulin; test: Functional plate assay of dye-GAM conjugates, LiCor Odyssey 700 channel; assay type: binding; conditions: GAM conjugated with 5× molar excess, FIG. 6-7
# Procedure: Performance of dye-GAM and dye-GAR conjugates was evaluated in a functional assay. Wells of a 96-well black clear-bottom plate were coated with target protein mouse or rabbit IgG immunoglobulin. One hundred μl mouse or rabbit IgG, at 10 μg/ml, was applied to the corresponding wells in row 1. The target proteins were serially diluted 1:1 from the wells in rows 2 to 7 using 100 μl PBS. One hundred μl of samples from the wells in row 7 were discarded. One hundred μl PBS was added to the wells in row 8. Plates were incubated overnight at 4° C. and then blocked 2×200 μl with Thermo Scientific SuperBlock® Blocking Buffer. The coated plates were washed 2×200 μl with PBS-Tween and 1×200 μl with PBS. Based on the calculated concentrations, conjugates were diluted 1:250 (of 1 mg/ml) in PBS, added to the corresponding plates (100 μl/well) and then incubated for one hour in the dark. The plates were washed with 2×200 μl with PBS-Tween and 1×200 μl with PBS and filled with PBS buffer (100 μl/well) prior to scanning the black clear-bottom plates on LiCor Odyssey at 700 channel, to detect fluorescence intensity.
# As shown in FIGS. 1-10, RFU and/or signal to background ratio (S/B) of the dyes conjugated to the indicated antibody were compared at various concentrations, using the indicated conjugation conditions.
SMILES,Em [1] [nm],Ex ([1]; EtOH),Ex ([1]; PBS),also measured
COCCOCCOCCOCCN(CCOCCOCCOCCOC)c1ccc2c(C(C)(C)C)cc(/C=C/C=C3/N(CCCS(=O)(=O)[O-])c4ccc(S(=O)(=O)[O-])cc4C3(C)CCCC(=O)ON3C(=O)CCC3=O)[o+]c2c1.[Na+] (stereo not shown) [V03-07005-NHS],708,690 (EtOH) nm,675 (PBS)* nm,
COCCOCCOCCOCCN(CCCS(=O)(=O)[O-])c1ccc2c(C(C)(C)C)cc(/C=C/C=C3/N(CCOCCOCCOCCOCCC(=O)ON4C(=O)CCC4=O)c4ccc(S(=O)(=O)[O-])cc4C3(C)CCCS(=O)(=O)[O-])[o+]c2c1.[Na+].[Na+] (stereo not shown) [V13-06190-NHS],712,691 (EtOH) nm,679 (PBS)* nm,
COCCOCCOCCOCCN(CCCS(=O)(=O)[O-])c1ccc2c(C(C)(C)C)cc(/C=C/C=C3/N(CCCS(=O)(=O)[O-])c4ccc(S(=O)(=O)[O-])cc4C3(C)CCCC(=O)ON3C(=O)CCC3=O)[o+]c2c1.[Na+].[Na+] (stereo not shown) [V17-03019-NHS],712,691 (EtOH) nm,675 (PBS)* nm,
COCCOCCOCCOCCN(CCCS(=O)(=O)[O-])c1ccc2c(C(C)(C)C)cc(/C=C/C=C3/N(CCCCCC(=O)ON4C(=O)CCC4=O)c4ccc(S(=O)(=O)[O-])cc4C3(C)CCCS(=O)(=O)[O-])[o+]c2c1.[Na+].[Na+] (stereo not shown) [V08-16072-NHS],712,691 (EtOH) nm,679 (PBS)* nm,
"COCCOCCOCCOCCN(CCCS(=O)(=O)[O-])c1ccc2c(C(C)(C)C)cc(/C=C/C=C3/N(CCCCCC(=O)O)c4ccc(S(=O)(=O)[O-])cc4C3(C)CCCS(=O)(=O)[O-])[o+]c2c1.[Na+].[Na+] (stereo not shown) [Compound V08-16072, (E)-2-((E)-3-(4-tert-butyl-7-((3-sulfonatopropyl)(2,5,8,11-tetraoxatridecan-13-yl)amino)chromenylium-2-yl)allylidene)-1-(5-carboxypentyl)-3-methyl-3-(3-sulfonatopropyl)indoline-5-sulfonate]",,690 nm,about 675 nm,quenching with molar excess [2]: gradually quenching from 2.5× molar excess condition; quenching with molar excess [3]: gradual quenching from 2.5× molar excess condition; quenching with molar excess [4]: gradually quenching from 2.5× molar excess condition; quenching with molar excess [5]: gradually quenched from the 2.5× molar excess condition
"COCCOCCOCCOCCN(CCOCCOCCOCCOC)c1ccc2c(C(C)(C)C)cc(/C=C/C=C3/N(CCCS(=O)(=O)[O-])c4ccc(S(=O)(=O)[O-])cc4C3(C)CCCC(=O)O)[o+]c2c1.[Na+] (stereo not shown) [Compound V03-07005, (E)-2-((E)-3-(4-tert-butyl-7-(di2,5,8,11-tetraoxatridecan-13-ylamino)chromenylium-2-yl)allylidene)-3-(3-carboxypropyl)-3-methyl-1-(3-sulfonatopropyl)indoline-5-sulfonate]",,690 nm,about 675 nm,"staining / S/B performance, in words [6]: best performing benzopyrylium dye; staining / S/B performance, in words ([2]; lamin B1, 2.5×-15× molar excess): best performing benzopyrylium dye; staining performance, in words [3]: best performing benzopyrylium dye; staining / S/B performance, in words ([4]; HDAC2, 2.5×-15× molar excess): best performing benzopyrylium dye; staining / S/B performance, in words ([5]; NCoR2, 2.5×-15× molar excess): best performing benzopyrylium dye; binding intensity (RFU), in words [7]: performed best of the benzopyrylium dyes"
"COCCOCCOCCOCCN(CCCS(=O)(=O)[O-])c1ccc2c(C(C)(C)C)cc(/C=C/C=C3/N(CCOCCOCCOCCOCCC(=O)O)c4ccc(S(=O)(=O)[O-])cc4C3(C)CCCS(=O)(=O)[O-])[o+]c2c1.[Na+].[Na+] (stereo not shown) [Compound V13-06190, (E)-2-((E)-3-(4-tert-butyl-7-((3-sulfonatopropyl)(2,5,8,11-tetraoxatridecan-13-yl)amino)chromenylium-2-yl)allylidene)-1-(14-carboxy-3,6,9,12-tetraoxatetradecyl)-3-methyl-3-(3-sulfonatopropyl)indoline-5-sulfonate]",,690 nm,about 675 nm,quenching with molar excess [2]: gradually quenching from 2.5× molar excess condition; quenching with molar excess [3]: gradual quenching from 2.5× molar excess condition; quenching with molar excess [4]: gradually quenching from 2.5× molar excess condition; quenching with molar excess [5]: gradually quenched from the 2.5× molar excess condition
"COCCOCCOCCOCCN(CCCS(=O)(=O)[O-])c1ccc2c(C(C)(C)C)cc(/C=C/C=C3/N(CCCS(=O)(=O)[O-])c4ccc(S(=O)(=O)[O-])cc4C3(C)CCCC(=O)O)[o+]c2c1.[Na+].[Na+] (stereo not shown) [Compound V17-03019, (E)-2-((E)-3-(4-tert-butyl-7-((3-sulfonatopropyl)(2,5,8,11-tetraoxatridecan-13-yl)amino)chromenylium-2-yl)allylidene)-3-(3-carboxypropyl)-3-methyl-1-(3-sulfonatopropyl)indoline-5-sulfonate]",,690 nm,about 675 nm,
